Measurements reported in patent US20090291887A1, “Proteins of the SDF-1-Family for the Manufacturing of a Medicament” (priority 2006, published 2009).

Legend:
[1] = tested on: DRG neurons; experiment: Myelin-inhibition assay (neurite growth of DRG neurons on laminin/myelin); type: cell-based, rat
Experimental: Spinal neurons from the dorsal root ganglia (DRG) of young rats (day 6 postnatal) were plated in parallel on culture substrates coated with either poly-D-lysine (PDL)/laminin (13 μg/ml) or PDL/laminin (13 μg/ml)+myelin (200 ng/culture). The myelin preparation has been obtained from rat brain by biochemical fractionation and employed as a suspension for coating the culture dishes.
The images shown in FIGS. 1-3 were recorded by immunofluorescence microscopy with PAM (panaxonal marker/neurofilament) antibody, and the visualization was effected by fluorescent dye (Alexa).

[2] = tested on: CST-lesioned adult rats; experiment: Rat model of spinal cord transection, CST axon sprouting (BDA tracing); type: in vivo
Experimental: The dura was opened at the thoracic level, and the vertebrae Th8 and Th9 were removed. The dorsal CST, dorsal columns and central canal were transected using a Scouten wire knife (Bilaney, Germany). Following the surgery, a silicon tube catheter was placed in the subdural space at 1 mm caudal to the lesion, and was connected to a mini-osmotic pump (Alzet) containing 200 μl of either SDF-1a/CXCL12 (10 μM in PBS) or Tris buffer. After the pump was fixed in place, the dura and overlying tissue were sutured, and the animals were allowed to recover. Application of either SDF-1a/CXCL12 or Tris buffer was carried out at a flow rate of 1 μl/h over a time period of 7 days. One week after lesion, the pump was removed in a second surgery.
A total volume of 2.3 μl biotinylated dextrane amine, BDA, (10%, Molecular Probes) was stereotactically injected into both hemispheres of the sensorimotor cortex. […] Briefly, animals were transcardially perfused with 40% PFA. The spinal cord was removed, postfixed in 4% PFA, and cryoprotected in sucrose (30%, Sigma) for 3-5 days. Spinal cord samples were shock frozen in methyl butane and cut into 20 μm thick sagittal cryostat slices. Sections were collected onto Histobond coated glass slides (Menzel, Germany). […] Briefly, sections were washed in PBS followed by incubation with avidin-Oregon (1:1000, in PBS) at 4° C. over night. […]

[3] = tested on: Ser-133 phosphorylated CREB in DRG neurons; experiment: PhosphoCREB assay; type: cell-based, rat; details: P6 DRG neurons; 200 ng/ml; versus untreated cultures (FIG. 5)
Experimental: Determination of Ser-133 phosphorylated CREB was performed on glass coverslips coated with PDL (1 mg/ml, Sigma) and laminin (13 μg/ml, Sigma). Dissociated DRGs were plated at a density of 5×10^4 cells/cm2 and incubated in DMEM containing 10% fetal bovine serum, nerve growth factor-2.5S, penicilline/streptomycine, and 5′-fluoro-2′-desoxyuridine for 24 h. Cells were stimulated by application of either 200 ng/ml SDF-1a/CXCL12 or 6 μM forskolin (Sigma), respectively, for 1-120 min. Samples were fixed with […] and stained for phophoCREB. Nuclei of P6 DRG neurons were stained with DAPI. For quantitative analysis of phosphoCREB-immunoreactivity, 30 pictures per coverslip were taken randomly at 20× magnification, and the number of neurons displaying phosphoCREB-positive nuclei as well as the total number of neurons were determined.

Substance: SDF-1α
- myelin-associated inhibition of neurite growth ([1]; DRG neurons on PDL/laminin + myelin, SDF-1 Alpha 200 ng/ml (FIG. 3)): essentially neutralized
- neutralization of myelin inhibition, quantitative evaluation ([1]; FIG. 4, dose dependence): dose-dependent neutralization
- myelin-induced inhibition of the neurite growth of DRG neurons in vitro ([1]; concentration of 500 ng of SDF-1/ml): neutralized completely
- animals that displayed extensive sprouting ([2]; SDF-1a infusion, none out of three Tris buffer-infused rats): Two out of three
- sprouting of BDA-labelled CST axons within the proximal stump ([2]; subdural infusion by mini-osmotic pump, 10 μM, 1 μl/h, 7 days, versus Tris buffer (FIG. 6)): enhanced sprouting
- proportion of nuclei displaying phosphoCREB-immunoreactivity [3]: significantly increased
